The source of these data is paper PMC3380929 (PLoS Pathogens, 2012).

“Also recorded” adds a separate entry of the source. Positions of bridges follow the written chain, without caps; N, C: chain ends. Residues, ends and D or L forms follow the SMILES beside them.

One data set deals with P. falciparum 3D7. Kind of data set: Red blood cell invasion assay, P. falciparum 3D7. Format: cell-based, P. falciparum (strain 3D7). To be noted: peptides 0.2 to 20 µM, parasitemia of IRBC 16 hours post-invasion, N = 3. On the procedure: (§1) The P. falciparum cell cultures and the invasion assays were performed as described previously. Briefly, highly synchronized P. falciparum 3D7 and HB3 schizonts (1.5% hematocrit, 1.5% parasitemia) were incubated with R1 or PfRON2sp1 peptides. Blood smears were collected 16 hours post-invasion and used for ring-stage parasites counting. The results presented are representative of three independent experiments, each performed in triplicate.

The target of another data set is PfAMA1 from strain 3D7 (Plasmodium falciparum, UniProt Q7KQK5). Kind of data set: SPR binding to immobilized recombinant PfAMA1 3D7. Also noted: species or system P. falciparum (strain 3D7). The conditions noted are these: ratio PfRON2sp1 vs PfRON2sp2, SPR. From the text: (§2) (ii) P. pastoris expression: Synthetic genes were optimized for PfAMA1 coding of residues 97–442, from strains 3D7 (Genbank accession number U33274), CAMP (accession number M34552) and HB3 (accession number U33277). Potential N-glycosylation sites were mutated and genes were cloned EcoRI-KpnI in the pPicZalpha A vector (Invitrogen), resulting in an 11-residues sequence extension followed by myc-epitope and hexa-His tags at the C-terminus), expressed in P. pastoris, and purified as described. Yield after purification was approximately 20 mg per L of culture. PfAMA1 FVO (residues 25–545, no tags, accession number AJ277646) was produced as described before. The DiCo3 protein was modified compared to the published protein [23]; it includes the PfAMA1 FVO prodomain (amino acids 25–96) and one additional mutation to minimize proteolytic cleavage Lys376–>Arg (B. Faber, unpublished results). The PfAMA1 3D7mut (Ile225–>Asn, residues 25–545, no tags) mutant was generated by site-directed mutagenesis (Genscript) and produced in P. pastoris in a similar fashion to the native protein [29].
(§3) A 39-residue peptide corresponding to residues 2021 to 2059 of PfRON2 (PfRON2sp1) was synthesized by Kinexus (Vancouver, Canada) and disulfide cyclized. […]
For orientation: Surface plasmon resonance follows binding to a sensor surface in real time, without labels.

A further data set concerns P. falciparum 3D7 or HB3. Kind of data set: Red blood cell invasion assay, cross-strain (3D7 and HB3). The conditions noted are these: for Cross-strain reactivity of invasion inhibition: 3D7 or HB3, peptides 0.2 to 20 µM, 16 hours post-invasion, N = 3; for Inhibition of erythrocyte invasion: P. falciparum merozoites, in words. The class given is cell-based, P. falciparum (strains 3D7 and HB3). The procedure:
as §1

The next data set concerns the target PfAMA1 from strain CAMP. Kind of data set: SPR binding to immobilized recombinant PfAMA1 CAMP. Also noted: species or system P. falciparum (strain CAMP). To be noted: SPR Biacore 2000, AMA1 immobilized on CM5, 25°C, PBS and 0.005% Tween 20, steady-state model (Req extrapolated), mean ± SD, at least three independent experiments, read-out: Apparent equilibrium dissociation constant KD.
Source text: as §2, §3

Data set [1] concerns PfAMA1 from 3D7, CAMP, FVO and HB3. Kind of data set: SPR binding compared across PfAMA1 strains. Further details: species or system P. falciparum.
Source text: as §2
A 39-residue peptide corresponding to residues 2021 to 2059 of PfRON2 (PfRON2sp1) was synthesized by Kinexus (Vancouver, Canada) and disulfide cyclized. Lyophilized PfRON2sp1 was solubilized in 100% DMSO and subsequently diluted in HBS (20 mM HEPES pH 7.5, 150 mM NaCl) for use in co-crystallization and functional studies. Peptides PfRON2sp2 (residues 2027 to 2054) and R1 were synthesized by PolyPeptide (Strasbourg, France) and solubilized in 3.5% DMSO for subsequent use.
SPR measurements were made with a Biacore 2000 instrument (Biacore AB). AMA1 proteins diluted in 10 mM sodium acetate pH 4.5 for 3D7, CAMP, HB3 and FVO strains, or pH 4.0 for 3D7mut and Dico3, were covalently immobilized by an amine-coupling procedure on CM5 sensor chips (GE Healthcare). The reference flow cell was prepared by the same procedure in absence of protein. […]

The target of another data set is PfAMA1 3D7 (Plasmodium falciparum, UniProt Q7KQK5). Nature of the data set: Isothermal titration calorimetry of R1 with PfAMA1 3D7. Format: binding, P. falciparum (strain 3D7). To be noted: ITC200, PfAMA1 3D7 (P. pastoris) 0.6 µM, R1 55 µM, PBS, 25°C, 1∶1 interaction model. On the procedure:
ITC measurements were made using a ITC200 calorimeter (MicroCal). PfAMA1 3D7 (P. pastoris) and peptide R1 were diluted in PBS to final concentrations of 0.6 µM and 55 µM, respectively. PfAMA1 3D7 (initial volume 200 µL) was titrated at 25°C by consecutive injections of the peptide R1 (2 µL aliquots at 3 min intervals). Raw data were normalized and corrected for the heat of dilution of R1 in PBS. Binding stoichiometry was determined by fitting the final data to a 1∶1 interaction model using the Origin7 software (OriginLab).

Data set [2] concerns the target PfAMA1 FVO (residues 25-545, no tags) (Plasmodium falciparum (strain FVO)). Nature of the data set: SPR; Biacore 2000; PfAMA1 (3D7, CAMP, HB3, FVO) amine-coupled on CM5 at pH 4.5; PfRON2sp peptides injected; 25°C, PBS with 0.005% Tween 20, 5 µL/min; apparent KD from a steady-state model, Req extrapolated.
Data set [3] concerns the target PfAMA1 CAMP (residues 97-442), P. pastoris expression (Plasmodium falciparum (strain CAMP)) (UniProt P50489). Described as above.
Data set [4] concerns the target PfAMA1 HB3 (residues 97-442), P. pastoris expression (Plasmodium falciparum (strain HB3)). The description is as above.
For data set [5], the target named is PfAMA1 3D7 (residues 97-442), P. pastoris expression (Plasmodium falciparum (strain 3D7)) (UniProt Q7KQK5). The data set is described as above.
The data set “crystal structure” deals with the molecule itself. Kind of data set: crystal structure.

Consider `CC[C@H](C)[C@H](NC(=O)[C@H](CC(=O)O)NC(=O)[C@H](CCCCN)NC(=O)[C@H](C)NC(=O)[C@H](CCC(N)=O)NC(=O)[C@H](CCC(N)=O)NC(=O)[C@@H](NC(=O)[C@@H](NC(=O)[C@@H](N)CC(=O)O)[C@@H](C)CC)[C@@H](C)O)C(=O)NCC(=O)N[C@@H](C)C(=O)NCC(=O)N1CCC[C@H]1C(=O)N[C@H](C(=O)N[C@@H](C)C(=O)N[C@@H](CO)C(=O)N[C@H]1CSSC[C@@H](C(=O)N[C@@H](CC(C)C)C(=O)N[C@@H](CC(N)=O)C(=O)N[C@@H](CO)C(=O)N[C@H](C(=O)N[C@H](C(=O)N[C@@H](CC(N)=O)C(=O)N[C@H](C(=O)N[C@@H](C)C(=O)N[C@@H](CC(C)C)C(=O)N[C@@H](CO)C(=O)O)[C@@H](C)O)C(C)C)C(C)C)NC(=O)[C@H]([C@@H](C)CC)NC(=O)[C@H](CCC(N)=O)NC(=O)[C@H](CCC(N)=O)NC(=O)[C@@H]2CCCN2C(=O)[C@@H]2CCCN2C(=O)[C@H](CO)NC(=O)[C@H](CCSC)NC(=O)[C@H](CCCNC(=N)N)NC(=O)[C@H]([C@@H](C)O)NC(=O)[C@H]([C@@H](C)O)NC(=O)[C@H](Cc2ccccc2)NC1=O)C(C)C` [PfRON2sp1], for which the “Inhibition of red blood cell invasion relative to R1 peptide” value in the data set with P. falciparum 3D7 is “higher capacity to inhibit red cell invasion; also recorded: higher inhibitory efficiency”. Further, the “Affinity of PfAMA1 from 3D7 for PfRON2sp1 higher than for PfRON2sp2” value at PfAMA1 from strain 3D7 is 25 fold. Also, in the data set on P. falciparum 3D7 or HB3, the “Cross-strain reactivity of invasion inhibition” value is recorded as “cross-strain inhibition of invasion; also recorded: cross-strain reactivity; also recorded: not strain specific” and the “Inhibition of erythrocyte invasion” value was “very efficient at inhibiting invasion”. For the same molecule, in the data set on P. falciparum 3D7 or HB3 (listed as PfRON2 peptide), the “Cross-strain reactivity of invasion inhibition” value was “strong inhibitory potency is not affected by AMA1 polymorphisms” and the “Inhibition of erythrocyte invasion” value is “inhibits erythrocyte invasion”. Moreover, the Kd on PfAMA1 from strain CAMP is 14.6 ± 3.8 nM. In addition, the “Affinity for PfAMA1 relative to R1 peptide” value in data set [1] (all the PfAMA1 proteins tested, SPR, compared with R1) was “higher affinity than for R1 peptide”. In addition, the “Affinity to PfAMA1” value in data set [1] (in words) was “very high affinity to PfAMA1”.

Turning to `CC[C@H](C)[C@H](NC(=O)[C@H](CC(=O)O)NC(=O)[C@@H](N)CCCCN)C(=O)NCC(=O)N[C@@H](C)C(=O)NCC(=O)N1CCC[C@H]1C(=O)N[C@H](C(=O)N[C@@H](C)C(=O)N[C@@H](CO)C(=O)N[C@H]1CSSC[C@@H](C(=O)N[C@@H](CC(C)C)C(=O)N[C@@H](CC(N)=O)C(=O)N[C@@H](CO)C(=O)N[C@H](C(=O)N[C@H](C(=O)N[C@@H](CC(N)=O)C(=O)O)C(C)C)C(C)C)NC(=O)[C@H]([C@@H](C)CC)NC(=O)[C@H](CCC(N)=O)NC(=O)[C@H](CCC(N)=O)NC(=O)[C@@H]2CCCN2C(=O)[C@@H]2CCCN2C(=O)[C@H](CO)NC(=O)[C@H](CCSC)NC(=O)[C@H](CCCNC(=N)N)NC(=O)[C@H]([C@@H](C)O)NC(=O)[C@H]([C@@H](C)O)NC(=O)[C@H](Cc2ccccc2)NC1=O)C(C)C` [PfRON2sp2] (H-KDIGAGPVASCFTTRMSPPQQICLNSVVN-OH; disulfide 11-23; N-terminus and C-terminus assumed), the Kd on PfAMA1 from strain CAMP was 165 ± 42 nM. The “Difference in affinity of PfAMA1 3D7 and CAMP homologs” value in data set [1] (3D7 vs CAMP, SPR) is given as “no significant difference in the affinity”.

On PfAMA1 3D7, `CC[C@H](C)[C@H](NC(=O)[C@H](Cc1cnc[nH]1)NC(=O)[C@H](CCSC)NC(=O)[C@H](CCCNC(=N)N)NC(=O)[C@H](CO)NC(=O)CNC(=O)[C@H](Cc1ccccc1)NC(=O)[C@H](CCCCN)NC(=O)[C@H](CO)NC(=O)[C@H](Cc1ccccc1)NC(=O)[C@H](CC(C)C)NC(=O)[C@@H]1CCCN1C(=O)[C@H](CC(C)C)NC(=O)[C@H](Cc1ccccc1)NC(=O)[C@H](CCC(=O)O)NC(=O)[C@H](C)NC(=O)[C@H](Cc1ccccc1)NC(=O)[C@@H](N)C(C)C)C(=O)N[C@@H](CC(C)C)C(=O)N[C@@H](CCCCN)C(=O)O` [R1] (H-VFAEFLPLFSKFGSRMHILK-OH) had a Kd of 145 nM.

With “PfRON2sp1 (PfRON2 residues 2021-2059) (peptide)”, the Kd in data set [2] is 9.2 nM; in data set [3], 14.6 nM; in [4], 18.3 nM; in [5], 20.3 nM.

Take “PfRON2sp2 (PfRON2 residues 2027-2055) (peptide)”: the Kd in [2] is 80 nM; in data set [3], 165 nM; in data set [4] it was 680 nM; in data set [5], 520 nM.

Consider VFAEFLPLFSKFGSRMHILK (source: synthetic peptide (PolyPeptide)) [invasion-inhibitory peptide R1], for which, in the data set “crystal structure”, the binding result is “binds”.
